The record followed here is paper PMC11207571, “Applicability of MDR1 Overexpressing Abcb1KO-MDCKII Cell Lines for Investigating In Vitro Species Differences and Brain Penetration Prediction” (Pharmaceutics, 2024).

Common to all, as to details: 1 µM, 120 min; mean ± SD
Data set [1] addresses rat Mdr1a (Rattus norvegicus, UniProt Q6PSM0). Description: Bidirectional transport assay, efflux ratio in Abcb1KO-MDCKII rMDR1 cells. An outline of the steps:
(§1)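 Pooled samples, each with three to four analytes, were run by HPLC with 0.1% formic acid in both water and acetonitrile. Detection used selected reaction monitoring with compound-optimized transitions.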

Data set [2] has as its target cynomolgus monkey Mdr1 (Macaca fascicularis, UniProt Q8HZQ6). Description: Bidirectional transport assay, efflux ratio in Abcb1KO-MDCKII cyMDR1 cells. A digest of the protocol: as §1
The target in data set [3] is human MDR1 (Homo sapiens, UniProt P08183). Description: Bidirectional transport assay, efflux ratio in Abcb1KO-MDCKII hMDR1 cells. A digest of the protocol:
as §1

Data set [4] concerns Abcb1KO-MDCKII-Mock cells. Description: Bidirectional transport assay, efflux ratio in Abcb1KO-MDCKII-Mock control cells. The procedure: Eluent A consisted of 0.1% formic acid in water, eluent B consisted of 0.1% formic acid in acetonitrile. Then, 10 µL samples were injected into the HPLC-MS/MS system. Mass spectrometric detection was performed in SRM mode, and ion transitions for each analyte were optimized during method development. Samples were analyzed in pools, with each pool containing three to four analytes.

In data set [5] the target is T1, human BCRP (Homo sapiens, UniProt Q9UNQ0).
T1 sequence (Q9UNQ0 1-655): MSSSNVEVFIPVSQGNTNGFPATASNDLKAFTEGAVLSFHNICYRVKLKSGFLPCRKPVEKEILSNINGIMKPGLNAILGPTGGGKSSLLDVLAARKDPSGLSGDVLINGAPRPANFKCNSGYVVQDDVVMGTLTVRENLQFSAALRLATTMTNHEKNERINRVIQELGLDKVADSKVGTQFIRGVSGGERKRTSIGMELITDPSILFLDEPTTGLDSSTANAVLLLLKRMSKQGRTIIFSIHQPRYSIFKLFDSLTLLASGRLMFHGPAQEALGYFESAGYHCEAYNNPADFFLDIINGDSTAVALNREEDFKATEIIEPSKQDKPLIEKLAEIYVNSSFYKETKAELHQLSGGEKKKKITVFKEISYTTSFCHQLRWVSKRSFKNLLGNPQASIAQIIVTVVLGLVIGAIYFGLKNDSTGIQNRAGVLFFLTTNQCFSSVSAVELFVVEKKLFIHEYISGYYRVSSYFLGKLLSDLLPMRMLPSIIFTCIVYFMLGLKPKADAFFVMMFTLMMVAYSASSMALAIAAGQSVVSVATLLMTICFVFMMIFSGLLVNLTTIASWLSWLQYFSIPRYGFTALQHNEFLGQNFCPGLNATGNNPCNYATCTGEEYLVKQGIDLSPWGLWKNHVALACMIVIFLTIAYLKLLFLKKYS
Description: Bidirectional transport assay, efflux ratio in MDCKII-BCRP cells. An outline of the steps:
as §1

Data set [6] deals with mouse Mdr1a (Mus musculus, UniProt P21447). The data set is described as follows: Bidirectional transport assay, efflux ratio in Abcb1KO-MDCKII mMDR1 cells. A digest of the protocol: as §1
Sequence of mouse Mdr1a (P21447 whole entry): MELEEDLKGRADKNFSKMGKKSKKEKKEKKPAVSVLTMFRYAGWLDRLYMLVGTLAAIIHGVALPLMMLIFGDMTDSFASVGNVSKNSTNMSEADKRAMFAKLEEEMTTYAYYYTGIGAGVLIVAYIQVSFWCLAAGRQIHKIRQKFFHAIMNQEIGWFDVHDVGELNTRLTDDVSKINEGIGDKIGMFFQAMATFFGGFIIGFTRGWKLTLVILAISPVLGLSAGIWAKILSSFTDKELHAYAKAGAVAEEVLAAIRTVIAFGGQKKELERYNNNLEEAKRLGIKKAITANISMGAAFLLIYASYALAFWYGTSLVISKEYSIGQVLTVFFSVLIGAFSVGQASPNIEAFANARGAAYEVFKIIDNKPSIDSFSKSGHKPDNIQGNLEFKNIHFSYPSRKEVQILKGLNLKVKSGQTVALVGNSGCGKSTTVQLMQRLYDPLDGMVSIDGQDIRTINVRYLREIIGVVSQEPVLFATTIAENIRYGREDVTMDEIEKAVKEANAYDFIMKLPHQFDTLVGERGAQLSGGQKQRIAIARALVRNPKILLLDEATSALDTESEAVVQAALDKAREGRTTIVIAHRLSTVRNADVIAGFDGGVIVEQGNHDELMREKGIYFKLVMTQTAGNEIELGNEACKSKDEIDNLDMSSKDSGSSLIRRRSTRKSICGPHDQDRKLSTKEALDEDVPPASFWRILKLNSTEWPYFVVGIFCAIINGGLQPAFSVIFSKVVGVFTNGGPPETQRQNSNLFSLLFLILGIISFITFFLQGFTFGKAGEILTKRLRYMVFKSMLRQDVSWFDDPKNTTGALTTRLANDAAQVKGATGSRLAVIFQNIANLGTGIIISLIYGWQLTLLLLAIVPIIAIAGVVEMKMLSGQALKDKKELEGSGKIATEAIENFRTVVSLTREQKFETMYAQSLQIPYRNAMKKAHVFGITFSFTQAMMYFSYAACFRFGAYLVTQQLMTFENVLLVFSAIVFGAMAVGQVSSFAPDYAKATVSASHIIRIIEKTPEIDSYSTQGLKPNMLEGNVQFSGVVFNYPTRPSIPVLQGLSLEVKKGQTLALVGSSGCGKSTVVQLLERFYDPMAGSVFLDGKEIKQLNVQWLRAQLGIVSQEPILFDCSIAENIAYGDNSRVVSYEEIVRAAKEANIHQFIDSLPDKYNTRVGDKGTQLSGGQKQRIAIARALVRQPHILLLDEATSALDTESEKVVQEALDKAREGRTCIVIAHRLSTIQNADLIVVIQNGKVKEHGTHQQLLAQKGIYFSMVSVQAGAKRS

Sequence of rat Mdr1a (Q6PSM0 1-1272): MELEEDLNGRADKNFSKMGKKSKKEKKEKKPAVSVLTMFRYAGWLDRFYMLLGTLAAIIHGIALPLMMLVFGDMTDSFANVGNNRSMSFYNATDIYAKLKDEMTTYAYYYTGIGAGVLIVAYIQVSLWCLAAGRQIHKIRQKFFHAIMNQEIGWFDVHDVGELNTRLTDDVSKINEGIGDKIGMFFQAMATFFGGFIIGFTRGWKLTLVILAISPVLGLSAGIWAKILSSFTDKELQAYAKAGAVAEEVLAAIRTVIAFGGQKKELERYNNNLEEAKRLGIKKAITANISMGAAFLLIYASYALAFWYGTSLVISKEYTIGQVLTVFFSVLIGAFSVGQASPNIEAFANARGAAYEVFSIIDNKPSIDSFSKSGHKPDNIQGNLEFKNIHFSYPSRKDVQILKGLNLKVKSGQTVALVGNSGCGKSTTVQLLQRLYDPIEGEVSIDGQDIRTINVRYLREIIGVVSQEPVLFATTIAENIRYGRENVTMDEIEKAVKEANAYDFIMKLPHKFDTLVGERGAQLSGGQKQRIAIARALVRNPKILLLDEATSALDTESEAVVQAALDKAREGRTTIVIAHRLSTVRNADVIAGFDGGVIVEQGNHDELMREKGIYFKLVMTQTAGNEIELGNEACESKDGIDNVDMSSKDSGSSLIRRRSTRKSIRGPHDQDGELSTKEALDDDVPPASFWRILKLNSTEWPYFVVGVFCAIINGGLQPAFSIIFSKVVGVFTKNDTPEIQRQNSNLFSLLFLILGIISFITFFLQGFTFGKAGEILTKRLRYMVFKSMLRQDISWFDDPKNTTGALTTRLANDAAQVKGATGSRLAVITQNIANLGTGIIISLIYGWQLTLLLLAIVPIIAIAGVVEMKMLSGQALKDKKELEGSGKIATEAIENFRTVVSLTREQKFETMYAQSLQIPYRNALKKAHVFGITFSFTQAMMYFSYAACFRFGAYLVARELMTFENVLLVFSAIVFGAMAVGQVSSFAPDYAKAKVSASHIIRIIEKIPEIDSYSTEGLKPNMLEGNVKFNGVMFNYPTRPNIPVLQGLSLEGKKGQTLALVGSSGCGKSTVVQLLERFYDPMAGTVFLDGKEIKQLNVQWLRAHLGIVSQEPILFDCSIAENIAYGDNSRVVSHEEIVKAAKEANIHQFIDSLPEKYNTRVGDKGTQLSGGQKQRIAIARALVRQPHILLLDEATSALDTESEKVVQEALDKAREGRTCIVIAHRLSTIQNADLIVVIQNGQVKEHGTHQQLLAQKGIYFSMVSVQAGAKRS
Sequence of cynomolgus monkey Mdr1 (Q8HZQ6 1-1283): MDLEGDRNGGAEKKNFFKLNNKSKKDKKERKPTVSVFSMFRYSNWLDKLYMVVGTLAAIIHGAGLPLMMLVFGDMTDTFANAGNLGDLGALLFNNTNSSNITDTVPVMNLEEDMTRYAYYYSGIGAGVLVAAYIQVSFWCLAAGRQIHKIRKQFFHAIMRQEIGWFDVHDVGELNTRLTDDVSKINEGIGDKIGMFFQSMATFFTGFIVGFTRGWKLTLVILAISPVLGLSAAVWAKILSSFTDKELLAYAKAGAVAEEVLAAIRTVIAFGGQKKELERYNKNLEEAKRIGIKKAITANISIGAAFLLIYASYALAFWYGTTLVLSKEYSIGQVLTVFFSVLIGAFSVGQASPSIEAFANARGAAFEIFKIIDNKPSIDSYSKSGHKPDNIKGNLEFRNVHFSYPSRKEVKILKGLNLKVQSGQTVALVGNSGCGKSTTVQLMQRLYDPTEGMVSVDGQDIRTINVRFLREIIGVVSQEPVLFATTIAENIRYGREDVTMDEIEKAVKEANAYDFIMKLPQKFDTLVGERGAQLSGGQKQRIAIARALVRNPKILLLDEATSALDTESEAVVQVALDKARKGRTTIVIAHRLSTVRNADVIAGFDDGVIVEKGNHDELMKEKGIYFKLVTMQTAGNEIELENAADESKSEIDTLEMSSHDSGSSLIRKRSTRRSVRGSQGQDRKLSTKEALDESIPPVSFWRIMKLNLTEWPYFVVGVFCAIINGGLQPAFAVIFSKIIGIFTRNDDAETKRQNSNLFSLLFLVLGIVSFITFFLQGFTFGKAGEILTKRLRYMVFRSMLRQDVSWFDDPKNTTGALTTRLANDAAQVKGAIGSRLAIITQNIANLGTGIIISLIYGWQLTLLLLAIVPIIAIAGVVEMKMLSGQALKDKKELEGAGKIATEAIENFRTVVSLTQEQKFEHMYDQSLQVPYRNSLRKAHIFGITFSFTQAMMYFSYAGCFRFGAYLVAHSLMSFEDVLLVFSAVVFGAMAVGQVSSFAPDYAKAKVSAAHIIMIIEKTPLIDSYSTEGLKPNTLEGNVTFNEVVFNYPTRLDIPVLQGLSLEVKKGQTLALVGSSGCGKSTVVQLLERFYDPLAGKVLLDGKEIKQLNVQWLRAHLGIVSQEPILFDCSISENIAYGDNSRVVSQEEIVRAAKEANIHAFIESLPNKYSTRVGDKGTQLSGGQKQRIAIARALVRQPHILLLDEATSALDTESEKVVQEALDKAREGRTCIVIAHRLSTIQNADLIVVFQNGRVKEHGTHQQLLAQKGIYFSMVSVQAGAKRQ
Sequence of human MDR1 (P08183 whole entry): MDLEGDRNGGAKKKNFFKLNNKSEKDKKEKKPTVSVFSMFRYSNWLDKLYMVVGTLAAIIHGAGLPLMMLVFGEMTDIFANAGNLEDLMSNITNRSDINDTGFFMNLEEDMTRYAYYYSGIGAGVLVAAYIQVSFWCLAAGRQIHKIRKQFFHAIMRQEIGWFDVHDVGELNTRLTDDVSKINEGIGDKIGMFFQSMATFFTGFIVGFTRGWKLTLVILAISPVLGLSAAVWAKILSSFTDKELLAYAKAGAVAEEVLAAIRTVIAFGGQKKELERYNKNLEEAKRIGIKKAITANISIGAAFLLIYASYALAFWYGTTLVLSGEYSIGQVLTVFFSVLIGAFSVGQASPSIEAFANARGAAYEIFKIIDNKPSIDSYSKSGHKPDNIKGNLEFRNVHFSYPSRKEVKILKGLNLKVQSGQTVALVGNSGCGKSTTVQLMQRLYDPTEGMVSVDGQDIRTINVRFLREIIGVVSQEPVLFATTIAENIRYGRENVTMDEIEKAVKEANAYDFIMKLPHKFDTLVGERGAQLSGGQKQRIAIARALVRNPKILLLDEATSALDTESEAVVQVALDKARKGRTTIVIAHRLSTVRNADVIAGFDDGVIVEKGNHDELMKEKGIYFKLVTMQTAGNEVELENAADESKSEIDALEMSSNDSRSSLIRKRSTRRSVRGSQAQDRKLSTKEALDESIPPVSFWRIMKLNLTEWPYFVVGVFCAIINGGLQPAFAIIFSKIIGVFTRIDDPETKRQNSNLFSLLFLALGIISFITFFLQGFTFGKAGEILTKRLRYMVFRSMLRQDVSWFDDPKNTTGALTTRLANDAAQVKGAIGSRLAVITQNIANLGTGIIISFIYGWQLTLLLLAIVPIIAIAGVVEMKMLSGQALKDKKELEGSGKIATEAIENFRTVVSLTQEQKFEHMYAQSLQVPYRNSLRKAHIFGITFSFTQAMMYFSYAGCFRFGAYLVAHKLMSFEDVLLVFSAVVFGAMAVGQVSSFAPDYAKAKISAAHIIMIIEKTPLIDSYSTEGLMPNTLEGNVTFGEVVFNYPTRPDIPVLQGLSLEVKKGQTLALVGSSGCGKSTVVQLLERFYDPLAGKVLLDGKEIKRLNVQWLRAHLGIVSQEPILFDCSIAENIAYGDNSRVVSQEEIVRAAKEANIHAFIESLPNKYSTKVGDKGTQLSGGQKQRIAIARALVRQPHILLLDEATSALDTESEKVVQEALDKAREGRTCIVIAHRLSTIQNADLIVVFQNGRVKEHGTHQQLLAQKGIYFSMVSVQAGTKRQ

In the case of `CN(C)CCC=C1c2ccccc2CCc2ccccc21` [Amitriptylline], the “Efflux Ratio in Abcb1KO-MDCKII rMDR1” value in data set [1] worked out at 0.94 ± 0.14. For the same molecule, the “Efflux Ratio in Abcb1KO-MDCKII cyMDR1” value in data set [2] is reported as 0.67 ± 0.08. In addition, the “Efflux Ratio in Abcb1KO-MDCKII hMDR1” value in data set [3] is given as 1.1 ± 0.11. For the same molecule, the “Efflux Ratio in Abcb1KO-MDCKII Mock” value in data set [4] was determined as 1.05 ± 0.08. For the same molecule, the “ER in MDCKII BCRP” value in data set [5] is 0.8 ± 0.07. The “Efflux Ratio in Abcb1KO-MDCKII mMDR1” value in data set [6] is 0.96 ± 0.12.
